Measurements reported in patent US12522582B2 (Gilead Sciences, Inc., priority 2022, dated 2026).

Tests used:
[1] = tested on: human cryopreserved hepatocytes; experiment: Stability Assay in Cryopreserved Hepatocytes (human); type: in vitro ADME; conditions: 1 μM, calculated from half-life using the well-stirred model
Experimental: Test compound was incubated at 1 μM with either rat or human cryopreserved hepatocytes (BioIVT, Westbury, NY) up to 6 hours at 37° C. in a 24-well plate format (1×10^6 cells/mL per well). At specified time points, samples were transferred to a 96-well plate and quenched with 2 volumes of a solution containing 90% acetonitrile 10% methanol 0.1% formic acid and internal standard. Sample plate was centrifuged at 3200 rpm for 15 min and supernatants transferred to a new plate containing half volume of water. The resulting solution was analyzed by LC-MS/MS. Data (analyte to internal standard peak area ratio) was plotted on a semi-log scale and fitted using an exponential fit. Assuming first order kinetics, the half-life (t1/2) and rate of metabolism were determined. Predicted hepatic clearance was calculated from the half-life using the well-stirred model.

[2] = tested on: HSV-2 virus (MS strain); experiment: HSV-2 Cellomics Assay (immunofluorescence of HSV protein gD in infected ARPE-19 cells)
[3] = tested on: HSV-2 virus (MS strain); experiment: HSV qPCR Assay (HSV replication in ARPE-19 cells)
[4] = MT-4 CC50 Assay (CellTiter Glo); type: cell-based; conditions: human, MT-4 cells, luminescence, read-out: CC50-MT4
Experimental: Compounds were tested in 384-well plates: 18 compounds in duplex. Compounds were diluted in 7 points, 3-fold with DMSO by Bravo. Assay plate, which contains 20 uL medium with compounds, was seeded 2000 MT-4 cells in 20 uL/well by Multi-drop to start the assay. The plate was incubated at 37° C. for 5 days. On 6th day, the CellTiter Glo 40 uL was added in each well. Luminescence was read by Victor II.

[5] = Human alphaherpesvirus 2, ARPE-19, 16 h, read-out: EC50-HSV2-FBS
[6] = Human alphaherpesvirus 2, ARPE-19, 16 h, read-out: EC50-HSV2-10% Human Serum
[7] = Human alphaherpesvirus 2, ARPE-19, read-out: EC50-HSV2-qPCR
[8] = Human alphaherpesvirus 2, ARPE-19, read-out: EC50 in HSV qPCR assay

| Structure (SMILES) | Predicted human hepatic clearance [1] | EC50 [2, 5] | EC50 [2, 6] | EC50 [3, 7] | CC50 at 5 days [4] | EC50 [3, 8] | EC50 ([2]; Human alphaherpesvirus 2, ARPE-19, read-out: EC50 in HSV-2 Cellomics assay) |
| --- | --- | --- | --- | --- | --- | --- | --- |
| C[C@H]1Cc2ccc(S(N)(=O)=O)cc2N1C(=O)[C@@H]1Cc2ccc(-c3ccccn3)cc2C1 (single isomer, unassigned) [Example 16] | 2 mL/min/kg | 775 nM | – | – | – | – | – |
| CC1Cc2ccc(S(N)(=O)=O)cc2N1C(=O)C1Cc2ccc(-c3ccccn3)cc2C1 (centres unmarked) [Example 3] | – | 129 nM | ≥ 25000 nM | 18.5 nM | – | – | – |
| NS(=O)(=O)c1cc2c(cc1F)CCN2C(=O)[C@@H]1Cc2ccc(-c3ccccn3)cc2C1 [Example 28] | 3.67 mL/min/kg | 6 nM | 8440 nM | – | ≥ 50000 nM | – | – |
| C[C@H]1Cc2cc(F)c(S(N)(=O)=O)cc2N1C(=O)[C@@H]1Cc2ccc(-c3ccccn3)cc2C1 [Example 34] | 3.33 mL/min/kg | 158 nM | 1570 nM | – | – | – | – |
| NS(=O)(=O)c1cc2c(cc1F)CCN2C(=O)[C@@H]1Cc2ccc(-c3cc(F)ccc3F)cc2C1 [Example 58, (R)-1-(5-(2,5-difluorophenyl)-2,3-dihydro-1H-indene-2-carbonyl)-5-fluoroindoline-6-sulfonamide] | 5.33 mL/min/kg | 12 nM | 4310 nM | – | ≥ 10000 nM | – | – |
| C[C@@H]1Cc2cc(Cl)c(S(N)(=O)=O)cc2N1C(=O)[C@@H]1Cc2ccc(-c3ccccn3)cc2C1 [Example 60, (R)-5-chloro-2-methyl-1-((R)-5-(pyridin-2-yl)-2,3-dihydro-1H-indene-2-carbonyl)indoline-6-sulfonamide] | 2.83 mL/min/kg | 13 nM | 434 nM | – | ≥ 10000 nM | – | – |
| C[C@@H]1Cc2cc(F)c(S(N)(=O)=O)cc2N1C(=O)[C@@H]1Cc2ccc(-c3cc(F)ccc3F)cc2C1 [Example 61, (R)-1-((R)-5-(2,5-difluorophenyl)-2,3-dihydro-1H-indene-2-carbonyl)-5-fluoro-2-methylindoline-6-sulfonamide] | 2.5 mL/min/kg | 28 nM | 169 nM | – | ≥ 10000 nM | – | – |
| NS(=O)(=O)c1ccc2c(c1)N(C(=O)C1Cc3ccc(-c4ccccc4F)cc3C1)CC2 (centres unmarked) [Example 70, 1-(5-(2-fluorophenyl)-2,3-dihydro-1H-indene-2-carbonyl) indoline-6-sulfonamide] | – | 91 nM | ≥ 25000 nM | 25.8 nM | – | – | – |
| NS(=O)(=O)c1ccc2c(c1)N(C(=O)[C@@H]1Cc3ccc(-c4cccc(F)n4)cc3C1)CC2 [Example 85, (R)-1-(5-(6-fluoropyridin-2-yl)-2,3-dihydro-1H-indene-2-carbonyl)indoline-6-sulfonamide] | – | 8.9 nM | 7500 nM | – | 330 nM | – | – |
| NS(=O)(=O)c1ccc2c(c1)N(C(=O)[C@H]1Cc3ccc(-c4cnccn4)cc3C1)CC2 [Example 86, (S)-1-(5-(pyrazin-2-yl)-2,3-dihydro-1H-indene-2-carbonyl)indoline-6-sulfonamide] | – | 455 nM | – | – | 28500 nM | – | – |
| NS(=O)(=O)c1ccc2c(c1)N(C(=O)[C@@H]1Cc3ccc(-c4cnccn4)cc3C1)CC2 [Example 87, (R)-1-(5-(pyrazin-2-yl)-2,3-dihydro-1H-indene-2-carbonyl)indoline-6-sulfonamide] | 5.17 mL/min/kg | 13 nM | 3280 nM | – | 306 nM | – | – |
| NS(=O)(=O)c1ccc2c(c1)N(C(=O)[C@H]1Cc3ccc(-c4ncccc4F)cc3C1)CC2 [Example 88, (S)-1-(5-(3-fluoropyridin-2-yl)-2,3-dihydro-1H-indene-2-carbonyl)indoline-6-sulfonamide] | – | 535 nM | – | – | 1800 nM | – | – |
| Cc1cccc(-c2ccc3c(c2)C[C@H](C(=O)N2CCc4ccc(S(N)(=O)=O)cc42)C3)n1 [Example 90, (R)-1-(5-(6-methylpyridin-2-yl)-2,3-dihydro-1H-indene-2-carbonyl)indoline-6-sulfonamide] | – | 23 nM | 14600 nM | – | 36900 nM | – | – |
| NS(=O)(=O)c1ccc2c(c1)N(C(=O)[C@@H]1Cc3ccc(-n4cccn4)cc3C1)CC2 [Example 91, (R)-1-(5-(1H-pyrazol-1-yl)-2,3-dihydro-1H-indene-2-carbonyl)indoline-6-sulfonamide] | – | 40 nM | 11600 nM | – | ≥ 50000 nM | – | – |
| CC1c2ccc(-c3ccccn3)cc2CC1C(=O)N1CCc2cc(F)c(S(N)(=O)=O)cc21 (centres unmarked) [Example 96, 5-fluoro-1-(1-methyl-5-(pyridin-2-yl)-2,3-dihydro-1H-indene-2-carbonyl) indoline-6-sulfonamide] | – | 24 nM | 85 nM | – | 12900 nM | – | – |
| Cc1cccc(-c2ccc3c(c2)CC(C(=O)N2CCc4cc(F)c(S(N)(=O)=O)cc42)C3C)n1 (centres unmarked) [Example 99, 5-fluoro-1-(1-methyl-5-(6-methylpyridin-2-yl)-2,3-dihydro-1H-indene-2-carbonyl) indoline-6-sulfonamide] | – | 63 nM | 396 nM | – | ≥ 10000 nM | – | – |
| CC1c2ccc(-n3cccn3)cc2CC1C(=O)N1CCc2cc(F)c(S(N)(=O)=O)cc21 (centres unmarked) [Example 100] | – | 34 nM | 107 nM | – | 5430 nM | – | – |
| C[C@H]1CN(C(=O)[C@H]2Cc3cc(-c4ccccn4)ccc3[C@@H]2C)c2cc(S(N)(=O)=O)c(F)cc21 [Example 104, (R)-5-fluoro-3-methyl-1-((1R,2S)-1-methyl-5-(pyridin-2-yl)-2,3-dihydro-1H-indene-2-carbonyl)indoline-6-sulfonamide] | – | 20 nM | 64.4 nM | – | ≥ 10000 nM | – | – |
| CC1CN(C(=O)C2Cc3ccc(-c4ccccn4)cc3C2)c2cc(S(N)(=O)=O)ccc21 (centres unmarked) [Example 106, 3-Methyl-1-[5-(2-pyridyl)indane-2-carbonyl]indoline-6-sulfonamide] | – | 81 nM | – | 10.9 nM | – | – | – |
| CC[C@@H]1Cc2cc(F)c(S(N)(=O)=O)cc2N1C(=O)[C@@H]1Cc2ccc(-c3ccccn3)cc2C1 [Example 113] | – | 19 nM | 168 nM | – | ≥ 10000 nM | – | – |
| NS(=O)(=O)c1cc2c(cc1F)CCN2C(=O)C1Cc2ccc(-c3ccccn3)cc2O1 (centres unmarked) [Example 116, 5-fluoro-1-(6-(pyridin-2-yl)-2,3-dihydrobenzofuran-2-carbonyl)indoline-6-sulfonamide] | 0.83 mL/min/kg | 42 nM | 489 nM | – | – | – | – |
| C[C@@H]1Cc2ccc(S(N)(=O)=O)cc2N1C(=O)[C@H]1Cc2cc(-c3cc(F)ccc3F)ccc2O1 [Example 123, (R)-1-((R)-5-(2,5-difluorophenyl)-2,3-dihydrobenzofuran-2-carbonyl)-2-methylindoline-6-sulfonamide] | – | 46 nM | 291 nM | – | ≥ 10000 nM | – | – |
| NS(=O)(=O)c1ccc2c(c1)N(C(=O)[C@@H]1Cc3ccc(-c4ccncn4)cc3C1)CC2 [Example 129, (R)-1-(5-(pyrimidin-4-yl)-2,3-dihydro-1H-indene-2-carbonyl)indoline-6-sulfonamide] | 17.5 mL/min/kg | 231 nM | 7610 nM | – | – | – | – |
| NS(=O)(=O)c1ccc2c(c1)N(C(=O)[C@@H]1Cc3ccc(-c4cccnc4)cc3C1)CC2 [Example 130, (R)-1-(5-(pyridin-3-yl)-2,3-dihydro-1H-indene-2-carbonyl)indoline-6-sulfonamide] | 7.5 mL/min/kg | 110 nM | ≥ 10000 nM | – | – | – | – |
| NS(=O)(=O)c1ccc2c(c1)N(C(=O)[C@@H]1Cc3ccc(-c4ccncc4)cc3C1)CC2 [Example 131, (R)-1-(5-(pyridin-4-yl)-2,3-dihydro-1H-indene-2-carbonyl)indoline-6-sulfonamide] | 9.5 mL/min/kg | 753 nM | ≥ 10000 nM | – | – | – | – |
| C[C@H]1Cc2cc(F)c(S(N)(=O)=O)cc2N1C(=O)[C@H]1Cc2ccc(-c3ccccn3)cc2C1 [Example 140, (S)-5-fluoro-2-methyl-1-((S)-5-(pyridin-2-yl)-2,3-dihydro-1H-indene-2-carbonyl)indoline-6-sulfonamide] | 6 mL/min/kg | ≥ 10000 nM | ≥ 10000 nM | – | – | – | – |
| Nc1nc2c(ncn2COCCO)c(=O)[nH]1 [acyclovir, reference compound] | – | – | – | – | – | 1250 nM | – |
| Cc1cccc(C)c1N(CC(=O)Nc1ccc(-c2ncon2)cc1)C(=O)C1CCS(=O)(=O)CC1 [amenamevir, reference compound] | – | – | – | – | – | 14 nM | – |
| Cc1nc(N(C)C(=O)Cc2ccc(-c3ccccn3)cc2)sc1S(N)(=O)=O [pritelivir, reference compound] | – | – | – | – | – | 14 nM | 150 nM |
